# Measurements from patent US9637469B2, “Pyridine derivative” (Teijin Pharma Limited, priority 2012, dated 2017).
# Target: T1, human URAT1 (Homo sapiens, UniProt Q96S37)
# T1 construct: Full-length cDNA of human URAT1 (hURAT1)
# T1 sequence (Q96S37 1-553): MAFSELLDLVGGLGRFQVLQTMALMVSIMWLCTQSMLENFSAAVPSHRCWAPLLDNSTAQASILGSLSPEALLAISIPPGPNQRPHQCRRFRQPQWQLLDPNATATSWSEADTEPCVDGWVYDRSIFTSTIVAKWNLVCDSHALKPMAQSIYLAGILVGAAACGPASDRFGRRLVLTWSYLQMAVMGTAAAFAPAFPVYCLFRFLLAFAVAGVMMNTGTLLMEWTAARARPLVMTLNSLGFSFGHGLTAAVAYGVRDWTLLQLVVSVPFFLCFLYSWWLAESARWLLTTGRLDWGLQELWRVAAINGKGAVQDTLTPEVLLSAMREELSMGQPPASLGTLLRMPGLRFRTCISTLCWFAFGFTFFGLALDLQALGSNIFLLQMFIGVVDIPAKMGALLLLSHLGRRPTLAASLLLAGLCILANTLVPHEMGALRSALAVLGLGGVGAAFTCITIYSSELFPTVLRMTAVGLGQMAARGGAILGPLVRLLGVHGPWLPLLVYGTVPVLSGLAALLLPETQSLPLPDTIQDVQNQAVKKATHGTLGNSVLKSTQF
# Experiment: Test for inhibition of uric acid transport using human URAT1-expressing cells;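 also: three stars up to 0.2 µM two stars 0.2-2 µM one star 2-20 µM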
# Type: cell-based
# Conditions: HEK 293 cells expressing human URAT1; 14C-labeled uric acid 25 μM; uptake 37° C. for 5 min
# Description: (1) Preparation of the Test Compound
# The test compound was dissolved in DMSO (produced by Sigma) to a concentration of 20 mM and was subsequently used by diluting to desired concentrations.
# (2) Test for Inhibition of Uric Acid Transport Using Human URAT1-Expressing Cells;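 also: three stars up to 0.2 µM two stars 0.2-2 µM one star 2-20 µM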
# Full-length cDNA of human URAT1 (hURAT1) (produced by OriGene Technologies, Inc., NCBI Reference Sequence: NM 144585) was subcloned into an expression vector, pCMV6-Kan/Neo (produced by OriGene Technologies, Inc.), and hURAT1 gene was transfected into human embryonic kidney-derived cells (HEK 293 cells) by liposome method using Lipofectamine 2000 (produced by Invitrogen Corporation), whereupon HEK 293 cells expressing human URAT1 gene were screened by its Geneticin resistance. By a method similar to the following method, functional expression of human URAT1 gene was confirmed by using transport of ^14C-labeled uric acid into the cells as an index.
# The HEK 293 cells expressing human URAT1 were seeded in a 24-well cell culture dish to a density of 3×10^5 cells/mL/well and were cultured in Dulbecco's modified Eagle's medium (D-MEM medium) containing 10% fetal bovine serum at 37° C. for 2 days. Thereafter, the following test for inhibition of uric acid transport was performed.
# After the medium was removed by aspiration from each well, the medium was replaced with a solution obtained by substituting NaCl in Hank's Balanced Salt Solution (HBSS) with Na gluconate (hereinafter, HBSS/Na-gluconate) and the cells were preincubated at 37° C. for about 10 minutes. HBSS/Na-gluconate was removed by aspiration and a ^14C-uric acid solution that was warmed at 37° C. in advance containing various concentrations of the Example compound described in (1) and a radioactive ligand (^14C-labeled uric acid; final concentration 25 μM) was added and an uptake reaction was carried out by incubating at 37° C. for 5 min. After the incubation, ^14C-labeled uric acid solution was removed by aspiration and the cells were washed three times with ice-cold HBSS. The HEK 293 cells expressing human URAT1 were lysed in 0.2 mol/L aqueous NaOH (hereafter, the cell sample) and the cell samples were collected. The cell sample and a liquid scintillation liquid, ULTIMA GOLD (produced by PerkinElmer, Inc.) were mixed and the radioactivity was measured by a liquid scintillation counter (Beckman Coulter, Inc.).
# The uric acid transport rate of the Example compound at each concentration (% of control uptake) was calculated relative to the radioactivity (radioactivity in human URAT1 expressing HEK 293 cells without addition of the Example compound (DMSO addition)) showing URAT1-specific uric acid transport as 100%, and the concentration (IC50) of the Example compound at which the uric acid transport rate is inhibited by 50% was determined. In addition, the symbols (*, **, and ***) in the table represent the following inhibitory activity values: • IC50≦_ 0.2 μM: *** • 0.2 μM<IC50≦2 μM: ** • 2 μM<IC50≦20 μM: *
row,SMILES,Inhibitory Activity (IC50 of uric acid transport inhibition)
1,"CC(C)c1nc(-c2cccnc2)n(Cc2cccc3ccsc23)c1C(=O)O [Compound A83, 1-(benzo[b]thiophen-7-ylmethyl)-4-isopropyl-2-(pyridin-3-yl)-1H-imidazole-5-carboxylic acid]",* *
2,"O=C(O)c1c(C(F)(F)F)nc(-c2cccnc2)n1Cc1cccc2ccsc12 [Compound A84, 1-(benzo[b]thiophen-7-ylmethyl)-2-(pyridin-3-yl)-4-(trifluoromethyl)-1H-imidazole-5-carboxylic acid]",* *
3,"Cc1nc(-c2cccnc2)n(Cc2cc(F)cc3ccsc23)c1C(=O)O [Compound A85, 1-((5-fluorobenzo[b]thiophen-7-yl)methyl)-4-methyl-2-(pyridin-3-yl)-1H-imidazole-5-carboxylic acid]",* * *
4,"O=C(O)c1c(C2CC2)nc(-c2cccnc2)n1Cc1cc(F)cc2ccsc12 [Compound A86, 4-cyclopropyl-1-((5-fluorobenzo[b]thiophen-7-yl)methyl)-2-(pyridin-3-yl)-1H-imidazole-5-carboxylic acid]",* * *
5,"O=C(O)c1c(Cl)nc(-c2cccnc2)n1Cc1cc(Cl)ccc1Cl [Compound A88, 4-chloro-1-(2,5-dichlorobenzyl)-2-(pyridin-3-yl)-1H-imidazole-5-carboxylic acid]",* * *
6,"O=C(O)c1c(Br)nc(-c2cccnc2)n1Cc1cc(Cl)ccc1Cl [Compound A89, 4-bromo-1-(2,5-dichlorobenzyl)-2-(pyridin-3-yl)-1H-imidazole-5-carboxylic acid]",* * *
7,"O=C(O)c1c(I)nc(-c2cccnc2)n1Cc1cc(Cl)ccc1Cl [Compound A90, 1-(2,5-dichlorobenzyl)-4-iodo-2-(pyridin-3-yl)-1H-imidazole-5-carboxylic acid]",* * *
8,"O=C(O)c1c(-c2ccccc2)nc(-c2cccnc2)n1Cc1cc(Cl)ccc1Cl [Compound A91, 1-(2,5-dichlorobenzyl)-4-phenyl-2-(pyridin-3-yl)-1H-imidazole-5-carboxylic acid]",* * *
9,"O=C(O)c1c(-c2cccc(F)c2)nc(-c2cccnc2)n1Cc1cc(Cl)ccc1Cl [Compound A92, 1-(2,5-dichlorobenzyl)-4-(3-fluorophenyl)-2-(pyridin-3-yl)-1H-imidazole-5-carboxylic acid]",* * *
10,"O=C(O)c1c(-c2ccc(F)cc2)nc(-c2cccnc2)n1Cc1cc(Cl)ccc1Cl [Compound A93, 1-(2,5-dichlorobenzyl)-4-(4-fluorophenyl)-2-(pyridin-3-yl)-1H-imidazole-5-carboxylic acid]",* * *
11,"O=C(O)c1c(-c2cccnc2)nc(-c2cccnc2)n1Cc1cc(Cl)ccc1Cl [Compound A94, 1-(2,5-dichlorobenzyl)-2,4-di(pyridin-3-yl)-1H-imidazole-5-carboxylic acid]",* *
12,"COc1nc(-c2cccnc2)n(Cc2cc(Cl)ccc2Cl)c1C(=O)O [Compound A96, 1-(2,5-dichlorobenzyl)-4-methoxy-2-(pyridin-3-yl)-1H-imidazole-5-carboxylic acid]",* * *
13,"O=C(O)c1c(OCC(F)(F)F)nc(-c2cccnc2)n1Cc1cc(Cl)ccc1Cl [Compound A98, 1-(2,5-dichlorobenzyl)-2-(pyridin-3-yl)-4-(2,2,2-trifluoroethoxy)-1H-imidazole-5-carboxylic acid]",* * *
14,"Cc1ccc(Oc2nc(-c3cccnc3)n(Cc3cc(Cl)ccc3Cl)c2C(=O)O)cc1 [Compound A99, 1-(2,5-dichlorobenzyl)-2-(pyridin-3-yl)-4-(p-tolyloxy)-1H-imidazole-5-carboxylic acid]",* * *
15,"O=C(O)c1c(Oc2ccc(F)cc2)nc(-c2cccnc2)n1Cc1cc(Cl)ccc1Cl [Compound A100, 1-(2,5-dichlorobenzyl)-4-(4-fluorophenoxy)-2-(pyridin-3-yl)-1H-imidazole-5-carboxylic acid]",* * *
16,"N#Cc1nc(-c2cccnc2)n(Cc2cc(Cl)ccc2Cl)c1C(=O)O [Compound A101, 4-cyano-1-(2,5-dichlorobenzyl)-2-(pyridin-3-yl)-1H-imidazole-5-carboxylic acid]",* * *
17,"C=Cc1nc(-c2cccnc2)n(Cc2cc(Cl)ccc2Cl)c1C(=O)O [Compound A102, 1-(2,5-dichlorobenzyl)-2-(pyridin-3-yl)-4-vinyl-1H-imidazole-5-carboxylic acid]",* *
18,"O=C(O)c1c(C2=CCCC2)nc(-c2cccnc2)n1Cc1cc(Cl)ccc1Cl [Compound A103, 4-(1-cyclopenten-1-yl)-1-(2,5-dichlorobenzyl)-2-(pyridin-3-yl)-1H-imidazole-5-carboxylic acid]",* *
19,"CSc1nc(-c2cccnc2)n(Cc2cc(Cl)ccc2Cl)c1C(=O)O [Compound A104, 1-(2,5-dichlorobenzyl)-4-(methylthio)-2-(pyridin-3-yl)-1H-imidazole-5-carboxylic acid]",* * *
20,"CCSc1nc(-c2cccnc2)n(Cc2cc(Cl)ccc2Cl)c1C(=O)O [Compound A105, 1-(2,5-dichlorobenzyl)-4-(ethylthio)-2-(pyridin-3-yl)-1H-imidazole-5-carboxylic acid]",* * *
21,"CC(C)(O)c1nc(-c2cccnc2)n(Cc2cc(Cl)ccc2Cl)c1C(=O)O [Compound A108, 1-(2,5-dichlorobenzyl)-4-(2-hydroxypropan-2-yl)-2-(pyridin-3-yl)-1H-imidazole-5-carboxylic acid]",* * *
22,"CCC(O)(CC)c1nc(-c2cccnc2)n(Cc2cc(Cl)ccc2Cl)c1C(=O)O [Compound A109, 1-(2,5-dichlorobenzyl)-4-(3-hydroxypentan-3-yl)-2-(pyridin-3-yl)-1H-imidazole-5-carboxylic acid]",* *
23,"Clc1ccc(Cl)c(Cn2c(-c3nnn[nH]3)cnc2-c2cccnc2)c1 [Compound A110, 3-(1-(2,5-dichlorobenzyl)-5-(1H-tetrazol-5-yl)-1H-imidazol-2-yl)pyridine]",* *

# Same assay, conditions: HEK 293 cells expressing human URAT1; 14C-labeled uric acid 25 μM; uptake 37° C. for 5 min; read-out: Inhibitory Activity (IC50 of uric acid transport inhibition)
row,SMILES,IC50
1,Cc1nc(-c2cccnc2)n(C(C)c2cc(Cl)ccc2Cl)c1C(=O)O (centres unmarked) [Compound A87],2 to 20 µM
2,O=C(O)c1c(-c2ccncc2)nc(-c2cccnc2)n1Cc1cc(Cl)ccc1Cl [Compound A95],2 to 20 µM
3,O=C(O)c1c(OCCO)nc(-c2cccnc2)n1Cc1cc(Cl)ccc1Cl [Compound A97],2 to 20 µM
4,C[S+]([O-])c1nc(-c2cccnc2)n(Cc2cc(Cl)ccc2Cl)c1C(=O)O (centres unmarked) [Compound A106],2 to 20 µM
5,CC[S+]([O-])c1nc(-c2cccnc2)n(Cc2cc(Cl)ccc2Cl)c1C(=O)O (centres unmarked) [Compound A107],2 to 20 µM
6,"Cc1nc(-c2cccnc2)n(Cc2cc(Cl)ccc2Cl)c1C(=O)NS(C)(=O)=O [Compound A111, 1-(2,5-dichlorobenzyl)-4-methyl-N-(methylsulfonyl)-2-(pyridin-3-yl)-1H-imidazole-5-carboxamide]",2 to 20 µM
